# Experimental data reported in paper PMC9632859, “Modulation of NMDA receptor activity by CR4056, an imidazoline-2 receptor ligand with analgesic properties” (Frontiers in Pain Research, 2022).
# “And” between values parts separate entries of the source, which are not always exact repeats. Equal entries are not always repeated.
# Experiments:
# [1] = target: GluN1-GluN2A containing receptors (Homo sapiens, UniProt Q05586+Q12879); assay: NMDA-evoked currents in JM4C fibroblasts expressing GluN1-GluN2A; type: cell-based; details: for IC50: 0.1–100 µM, read-out: IC50 of reduction of NMDA-evoked current, GluN1-GluN2A; for Emax: read-out: efficacy (Eff, maximal effect) on NMDA-evoked current, GluN1-GluN2A
# Procedure: (§1) Mouse connective tissue fibroblasts JM4C cells stably transfected with NR1A/NR2A or NR1A/NR2B human NMDA inducible receptors were kindly donated by Dr. Paul Whiting, Merk Sharp / Dohme (UK). They were grown in Dulbecco's Modified Basal Eagle's medium (DMEM) with Na+ pyruvate, 4,500 mg glucose and glutamine. For growing, DMEM was added with geneticin 1 mg/ml (Sigma) and foetal bovine serum 10% (Celbio). One day before experiment, fibroblasts confluent dishes were split with trypsin-EDTA 0.05% (Euroclone) and plated at the density of 0.5 × 10^6 cells/ml in 2 ml dishes containing an inducing DMEM with ketamine (final concentration 0.015%, Gellini International, Italy) and 25 nM dexamethasone (Sigma Aldrich) to induce NMDA receptors expression.
# (§2) Recordings were performed in cortical and cerebellar neurons after 7–9 days in culture or in spinal cord slices from postnatal rats. All recordings were performed at room temperature, under voltage-clamp in the whole-cell configuration of the patch-clamp technique ([19]). […] Currents were amplified with an Axopatch 1D amplifier (Axon Instruments, Foster City. CA), filtered at 5 kHz, digitized at 10 kHz.
# (§3) The chamber used for recording from cultured neurons was continuously perfused at 2 ml/min with an extracellular medium composed of (mM): 145 NaCl, 5 KCl, 1 CaCl2, 5 Hepes, 5 Glucose, and 20 Sucrose, pH 7.4 with NaOH. Intracellular solution contains (mM): 140 KCl, 3 MgCl2, 5 EGTA, 5 Hepes, and 2 ATP-Na, pH 7.3 with KOH.
# (§4) All drugs were applied directly by gravity through a Y-tube perfusion system ([21]) in the experiments performed in culture while in slice experiments CR4056 and the receptor antagonists were bath perfused.
# (§5) Increasing concentrations of CR4056 (0.1–100 µM) were applied to NMDA-evoked currents in fibroblasts expressing GluN1- GluN2A or GluN1- GluN2B subunits (Figure 3A).
# NMDA receptor [2] = assay: NMDA-evoked currents in primary culture of cortical neurons, whole-cell patch-clamp; type: cell-based, rat; details: for IC50: NMDA 100 µM + glycine 10 µM, read-out: IC50 of reduction of NMDA-evoked current; for maximal reduction of NMDA current (efficacy): from dose-response curve
# Procedure: (§6) Primary cultures of cortical (CX) and cerebellar (CB) neurons were prepared from newborn (CX) or seven days old (CB) Sprague-Dawley rats Briefly, cells from cortex and cerebellum were dispersed with trypsin (0.24 mg/ml; Sigma Aldrich, Milan, Italy) and plated at a density of 0.8 × 10^6 cells/ml on 35 mm Falcon dishes coated with poly-L-lysine (10 µg/ml, Sigma Aldrich). Cells were plated in basal Eagle's Medium (BME; Celbio, Milan, Italy), supplemented with 10% fetal bovine serum (Celbio), 2 mM glutamine, 25 mM KCl and 100 µg/ml gentamycin (Sigma Aldrich) and maintained at 37°C in 5% CO2. After 24 h in vitro, the medium was replaced with 1:1 mixture of BME and Neurobasal medium (Celbio, Milan) containing 2% B27 supplement, 1% antibiotic, and 0.25% glutamine (Invitrogen). At […] in vitro (DIV5), cytosine arabinofuranoside (Ara-C) was added at final concentration of 1 µM. Thereafter, half of the medium was replaced twice a week with Neurobasal medium containing 2% B27 supplement, 1% antibiotic, and 0.25% glutamine.
# as §2, §3, §4
# When CR4056 (10 µM) was delivered inside the cell through the patch pipette the response to NMDA application was recorded at time 0 (just after breaking inside the cell) and after 1.5, 3, 4.5, 6 min. The NMDA-evoked current was recorded at these time intervals and the amplitude of the current was measured.
# The effect of CR 4056 in primary neuronal cultures was calculated as % variation of the NMDA-evoked current after application of the drug. A negative variation means a reduction of the control current. Off-line data analysis, curve fitting, and figure preparation were performed with Clampfit 9 or 10 (Molecular Devices, Sunnyvale, CA, United States), Origin 4.1 (Microcal, Northampton, MA, United States), and Microsoft Office (Microsoft). SigmaPlot 11 (SYSTAT, Palo Alto, CA, United States) and GraphPad Prism 9.3 (GraphPad Software, San Diego, CA, United States) were used for statistical analysis.
# NMDA-evoked currents were recorded in primary culture of cortical neurons using the patch-clamp technique in the whole cell configuration. Fast application of NMDA (100 µM) and Glycine (10 µM) elicited an inward current that was decreased by CR4056 (Figure 1A); the effect was reversible and dose-dependent (Figure 1B). […] (Figure 1B).
# GluN1-GluN2B receptors = GluN1-GluN2B receptors (Homo sapiens, UniProt Q05586+Q13224); assay: NMDA-evoked currents in JM4C fibroblasts expressing GluN1-GluN2B; type: cell-based; details: for IC50: 0.1–100 µM, read-out: IC50 of reduction of NMDA-evoked current, GluN1-GluN2B; for Emax: read-out: efficacy (Eff, maximal effect) on NMDA-evoked current, GluN1-GluN2B
# Procedure: as §1, §2, §3, §4, §5
# PKCε translocation = tested on: PKCε translocation; design: method as in PMID 31454418; details: activated sensory neurons, cultured DRG; cited from earlier work
# [3] = tested on: lamina II neuron excitability; assay: Current-clamp recording of summated EPSPs and action potentials on repetitive dorsal root stimulation; type: cell-based, rat
# Text: (§7) Sprague–Dawley rats (male and female at postnatal days P15-P23) were anaesthetized with isoflurane and decapitated. The spinal cord and vertebrae were rapidly removed and placed in ice-cold dissecting Krebs' solution (composition in mM: 90 NaCl, 50 sucrose, 2.5 KCl, 25 NaHCO3, 1 NaH2PO4·H2O, 25 glucose, 6 MgCl2, 1.5 CaCl2, 1 kynurenic acid), bubbled with carboxygen (95% O2, 5% CO2). The lumbar part of the spinal cord was isolated, embedded in low melting point agarose (3% w/v, Thermo Fisher Scientific, Waltham, United States), and transverse slices (500 µm thick) were obtained using a vibrating microtome (WPI, Sarasota, United States). Slices were incubated in oxygenated incubation Krebs' solution (composition in mM: 125 NaCl, 2.5 KCl, 25 NaHCO3, 1 NaH2PO4·H2O, 25 glucose, 6 MgCl2, 1.5 CaCl2) at 32°C for 30 min and then used for recording.
# (§8) Neurons in spinal cord slices were visualized using an Axioskop microscope (Zeiss, Oberkochen, Germany), fitted with Nomarski optics and connected to a CCD camera (Dage-MTI, Michigan City, United States). Patch-clamp recordings were performed by using thick-walled borosilicate pipettes (3–5 MOhm resistance). Data were recorded and acquired using a MultiClamp 700A amplifier and the pClamp 10 software (Molecular Devices, Sunnyvale, United States). Sampling rate was 10 kHz, and data were filtered at 2–5 kHz. The dorsal root attached to each slice was stimulated using a suction electrode. Stimulus duration was 0.1 ms, stimulus intensity was 500 µA, able to activate both A and C primary afferent fibers ([20]). Extracellular field potentials were recorded by positioning a glass pipette (3–5 µm diameter, filled with Krebs' extracellular solution) on lamina II in spinal cord slices. Extracellular synaptic potentials were evoked by dorsal root stimulation, as described above, and amplified by using a Multiclamp 700A amplifier (Molecular Devices, Sunnyvale, United States).
# For the experiments on neurons in slices the following Krebs' extracellular solution was used (composition in mM): 125 NaCl, 2.5 KCl, 25 NaHCO3, 1 NaH2PO4·H2O, 25 glucose, 1 MgCl2, 2 CaCl2. A cesium-based internal solution was used during the voltage-clamp experiments (composition in mM: 120 caesium methanesulfonate, 10 sodium methanesulfonate, 10 EGTA, 1 CaCl2, 10 Hepes, 5 lidocaine N-ethyl bromide quaternary salt-Cl, 5 MgATP, pH adjusted to 7.2 with CsOH, osmolarity 290 mOsmol L^−1), while a potassium-based solution was utilized for the experiments in current-clamp (composition in mM: 120 potassium methanesulfonate, 10 NaCl, 10 EGTA, 1 CaCl2, 10 Hepes, 5 MgATP, pH adjusted to 7.2 with KOH, osmolarity 300 mOsmol L^−1).
# Finally, we tested whether CR4056 was able to depress lamina II neuron excitability in response to repetitive stimulation of the dorsal root. […]
# [4] = tested on: field potentials from dorsal horn laminae I-II (mainly mediated by AMPARs); assay: Extracellular field potentials evoked by dorsal root stimulation in spinal cord slices; type: cell-based, rat; details: 6 slices; p > 0.05
# Text: as §7, with “Slices were incubated in oxygenated incubation Krebs' solution (composition in mM: 125 NaCl, 2.5 KCl, 25 NaHCO3, 1 NaH2PO4·H2O, 25 glucose, 6 MgCl2, 1.5 CaCl2) at 32°C for 30 min and then used for recording.” left out
# Neurons in spinal cord slices were visualized using an Axioskop microscope (Zeiss, Oberkochen, Germany), fitted with Nomarski optics and connected to a CCD camera (Dage-MTI, Michigan City, United States). […] Data were recorded and acquired using a MultiClamp 700A amplifier and the pClamp 10 software (Molecular Devices, Sunnyvale, United States). […] Extracellular field potentials were recorded by positioning a glass pipette (3–5 µm diameter, filled with Krebs' extracellular solution) on lamina II in spinal cord slices. […]
# To determine whether the effect of CR4056 on NMDA EPSCs was due to a decrease of glutamate release from primary afferents or to a modulation of NMDARs, we recorded extracellular field potentials evoked by dorsal root stimulation (Figure 4E). […]
# [5] = tested on: NMDA-mediated postsynaptic excitatory currents (EPSCs); assay: NMDA EPSCs evoked by dorsal root stimulation in lamina II neurons of spinal cord slices; type: cell-based, rat
# Text: as §7
# as §8, with “Extracellular synaptic potentials were evoked by dorsal root stimulation, as described above, and amplified by using a Multiclamp 700A amplifier (Molecular Devices, Sunnyvale, United States).” left out
# We next investigated the modulatory effect of CR4056 on NMDA-mediated postsynaptic excitatory currents (EPSCs) recorded from lamina II neurons in rat spinal cord slices. […] To isolate NMDA EPSCs (recorded in voltage clamp at +40 mV), AMPA, GABAA and glycine receptors were blocked by NBQX (10 µM), bicuculline (10 µM), and strychnine (0.5 µM), respectively. […]
# NMDA receptor [6] = assay: NMDA-evoked currents in primary culture of cerebellar neurons, whole-cell patch-clamp; type: cell-based, rat; details: CR4056 10 µM, glycine 1-500 µM, one-way ANOVA
# Procedure: as §6, with “Thereafter, half of the medium was replaced twice a week with Neurobasal medium containing 2% B27 supplement, 1% antibiotic, and 0.25% glutamine.” left out
# The effect of CR 4056 in primary neuronal cultures was calculated as % variation of the NMDA-evoked current after application of the drug. […]
# Glycine is an important co-agonist of the NMDA receptor. To test the dependence of CR4056 modulation on glycine concentration we measured the reduction of NMDA current by CR4056 (10 µM) in the presence of 1, 5, 10, 50, 100, and 500 µM glycine.
# [7] = CR4056 10 µM, 4 pulses 5–10 Hz, 500 µA
# Chain of GluN1-GluN2B receptors (Q13224 27-1484, other chains not shown): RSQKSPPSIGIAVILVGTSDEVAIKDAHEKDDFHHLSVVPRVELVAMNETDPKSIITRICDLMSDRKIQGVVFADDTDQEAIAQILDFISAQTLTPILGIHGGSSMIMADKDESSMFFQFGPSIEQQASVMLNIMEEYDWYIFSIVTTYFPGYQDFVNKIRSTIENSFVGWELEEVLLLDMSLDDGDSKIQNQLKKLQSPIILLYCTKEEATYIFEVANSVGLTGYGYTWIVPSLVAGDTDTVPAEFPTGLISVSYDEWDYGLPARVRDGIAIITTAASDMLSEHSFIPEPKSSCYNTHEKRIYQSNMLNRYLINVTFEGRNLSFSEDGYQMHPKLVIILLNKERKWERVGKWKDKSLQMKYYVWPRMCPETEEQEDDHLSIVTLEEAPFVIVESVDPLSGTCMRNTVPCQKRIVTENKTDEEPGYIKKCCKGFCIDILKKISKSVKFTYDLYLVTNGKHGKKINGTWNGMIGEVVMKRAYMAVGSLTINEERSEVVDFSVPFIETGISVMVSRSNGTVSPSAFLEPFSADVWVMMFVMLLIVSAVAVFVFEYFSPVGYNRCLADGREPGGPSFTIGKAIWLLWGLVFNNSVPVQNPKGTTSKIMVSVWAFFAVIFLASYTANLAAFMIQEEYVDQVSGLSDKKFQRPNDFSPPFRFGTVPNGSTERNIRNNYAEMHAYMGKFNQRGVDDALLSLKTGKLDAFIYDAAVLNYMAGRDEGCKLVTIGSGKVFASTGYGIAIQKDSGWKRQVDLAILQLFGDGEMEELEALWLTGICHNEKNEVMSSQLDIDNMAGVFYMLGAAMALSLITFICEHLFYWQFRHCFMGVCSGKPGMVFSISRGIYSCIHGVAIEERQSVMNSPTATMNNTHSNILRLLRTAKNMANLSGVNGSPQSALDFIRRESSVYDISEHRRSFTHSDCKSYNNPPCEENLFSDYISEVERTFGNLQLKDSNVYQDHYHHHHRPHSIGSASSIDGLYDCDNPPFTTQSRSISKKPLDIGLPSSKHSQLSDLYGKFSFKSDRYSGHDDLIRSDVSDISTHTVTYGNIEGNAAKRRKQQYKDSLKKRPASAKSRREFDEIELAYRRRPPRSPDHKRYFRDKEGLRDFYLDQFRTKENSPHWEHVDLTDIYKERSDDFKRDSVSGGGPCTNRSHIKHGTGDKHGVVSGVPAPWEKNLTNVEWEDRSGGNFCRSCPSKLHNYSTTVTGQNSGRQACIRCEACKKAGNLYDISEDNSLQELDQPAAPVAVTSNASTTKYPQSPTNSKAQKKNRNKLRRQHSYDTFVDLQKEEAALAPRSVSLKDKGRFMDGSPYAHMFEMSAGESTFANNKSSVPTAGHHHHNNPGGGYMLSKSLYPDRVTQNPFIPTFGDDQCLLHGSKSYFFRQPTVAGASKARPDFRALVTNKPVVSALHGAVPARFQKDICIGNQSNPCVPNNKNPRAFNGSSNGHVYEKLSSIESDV
# Chain of GluN1-GluN2A containing receptors (Q12879 23-1464, other chains not shown): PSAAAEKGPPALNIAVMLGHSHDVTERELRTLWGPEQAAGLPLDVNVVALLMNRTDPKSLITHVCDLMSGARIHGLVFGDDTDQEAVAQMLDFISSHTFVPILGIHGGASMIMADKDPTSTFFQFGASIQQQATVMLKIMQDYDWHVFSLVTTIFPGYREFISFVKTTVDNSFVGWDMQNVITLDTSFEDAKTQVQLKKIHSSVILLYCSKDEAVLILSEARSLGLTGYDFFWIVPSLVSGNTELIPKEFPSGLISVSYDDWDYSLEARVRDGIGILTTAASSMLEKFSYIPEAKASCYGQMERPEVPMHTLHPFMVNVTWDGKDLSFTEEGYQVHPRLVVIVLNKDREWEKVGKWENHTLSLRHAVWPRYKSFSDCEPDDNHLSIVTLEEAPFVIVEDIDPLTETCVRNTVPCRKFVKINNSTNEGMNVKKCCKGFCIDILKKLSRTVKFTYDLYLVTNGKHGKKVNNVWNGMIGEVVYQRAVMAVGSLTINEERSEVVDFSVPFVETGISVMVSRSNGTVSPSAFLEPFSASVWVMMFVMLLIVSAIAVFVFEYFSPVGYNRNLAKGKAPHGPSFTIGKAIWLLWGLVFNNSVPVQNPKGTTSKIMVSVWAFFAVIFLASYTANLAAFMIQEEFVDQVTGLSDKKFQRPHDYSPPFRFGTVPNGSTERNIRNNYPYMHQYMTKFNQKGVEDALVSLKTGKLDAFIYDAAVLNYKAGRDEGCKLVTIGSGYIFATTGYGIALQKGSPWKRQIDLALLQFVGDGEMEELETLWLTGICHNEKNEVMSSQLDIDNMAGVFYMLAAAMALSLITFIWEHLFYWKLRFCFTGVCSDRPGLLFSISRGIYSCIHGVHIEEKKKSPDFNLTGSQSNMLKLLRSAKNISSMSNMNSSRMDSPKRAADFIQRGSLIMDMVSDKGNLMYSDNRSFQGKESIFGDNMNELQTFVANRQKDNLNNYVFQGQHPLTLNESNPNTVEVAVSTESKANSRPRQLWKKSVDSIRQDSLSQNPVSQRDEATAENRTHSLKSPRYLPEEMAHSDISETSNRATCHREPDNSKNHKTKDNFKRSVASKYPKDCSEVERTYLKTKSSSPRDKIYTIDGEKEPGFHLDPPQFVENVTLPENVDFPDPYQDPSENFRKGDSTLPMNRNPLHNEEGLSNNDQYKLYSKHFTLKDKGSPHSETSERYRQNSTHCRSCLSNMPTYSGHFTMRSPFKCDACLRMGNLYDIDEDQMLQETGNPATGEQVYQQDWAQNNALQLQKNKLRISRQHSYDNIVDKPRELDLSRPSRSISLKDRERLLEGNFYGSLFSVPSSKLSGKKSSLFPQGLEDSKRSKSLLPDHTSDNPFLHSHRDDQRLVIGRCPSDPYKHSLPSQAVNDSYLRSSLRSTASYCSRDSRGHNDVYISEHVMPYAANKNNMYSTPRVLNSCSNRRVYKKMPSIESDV
compound,measurement,setting,value
"Cl.c1ccc2oc(C3=NCCN3)cc2c1 [2-BFI, 2-(2-Benzofuranyl)-2-imidazoline hydrochloride, reference compound]",IC50,[1],23 ± 12 µM
same,Emax,[1],-39 ± 6%
same,IC50,NMDA receptor [2]; cortical neurons,8 µM and 13 µM
same,maximal reduction of NMDA current (efficacy),NMDA receptor [2]; cortical neurons,76 ± 2% and 48 ± 5%
same,IC50,GluN1-GluN2B receptors,11 ± 6 µM
same,Emax,GluN1-GluN2B receptors,-73 ± 7%
same,effect on PKCε translocation,PKCε translocation,ineffective
"c1ccc(-c2ncc3cc(-n4ccnc4)ccc3n2)cc1 [CR4056, 2-phenyl-6-(1H-imidazol-1yl)quinazoline]",change of area of the summated EPSPs,[3]; [7],−29.7 ± 5.4%
same,change of mean number of action potentials generated at each train,[3]; [7],−50.9 ± 12.6%
same,"EPSP area in CR, mean","[3]; during CR4056, N 7, control mean 11858.457",8924.714 mV*ms
same,"N action potentials/train in CR, median","[3]; during CR4056, N 7, control median 0.310",0.150
same,IC50,[1],21 ± 12 µM
same,Emax,[1],-47 ± 3%
same,effect on field potential area,[4],did not affect
same,average reduction in NMDA EPSC amplitude,"[5]; CR4056 10 µM, +40 mV, NBQX, bicuculline, strychnine present, 7 neurons",26.3 ± 4.2%
same,"EPSC amplitude in WASH, mean","[5]; after washing of CR4056, N 7",514.986 pA
same,"EPSC amplitude in CR, mean","[5]; during CR4056, N 7, control mean 597.629",475.443 pA
same,"change of amplitude of NMDA currents, compound dialyzed inside the cell via patch pipette","NMDA receptor [2]; 10 µM intracellular, p > 0.05, t-test",did not change significantly
same,CR4056 effect on NMDA current when co-applied with idazoxan,NMDA receptor [2]; CR4056 10 µM + idazoxan 10 µM,does not change CR4056 effect
same,reduction of current evoked by increasing NMDA concentration (type of antagonism),"NMDA receptor [2]; CR4056 10 µM, NMDA 10 to 100 µM",reduced to the same extent
same,reduction of NMDA currents in control vs after pertussis toxin,NMDA receptor [2]; PTX 200 ng/ml for 24 h,no statistically significant differences
same,effect on NMDA current at high glycine concentrations,"NMDA receptor [2]; cortical neurons, CR4056 10 µM, glycine 1-500 µM, one-way ANOVA",significatively reduced
same,IC50,NMDA receptor [2]; cortical neurons,5.3 ± 0.1 µM
same,maximal reduction of NMDA current (efficacy),NMDA receptor [2]; cortical neurons,84.4 ± 6%
same,reduction of NMDA-evoked current at +40 mV,"NMDA receptor [2]; holding potential +40 mV, CR4056 10 µM",−31 ± 1%
same,reduction of NMDA-evoked current at −40 mV,"NMDA receptor [2]; holding potential −40 mV, CR4056 10 µM",−33 ± 4%
same,IC50,GluN1-GluN2B receptors,11 ± 2 µM
same,Emax,GluN1-GluN2B receptors,-86 ± 6%
same,effect on NMDA current at high glycine concentrations,NMDA receptor [6],significatively reduced
same,effect on PKCε translocation,PKCε translocation,reduces PKCε translocation
"c1ccc2c(c1)OCC(C1=NCCN1)O2 (stereo not shown) [Idazoxan, reference compound]",effect on NMDA-elicited current applied alone,NMDA receptor [2]; 10 µM,did not affect
